Measurements published in patent US20230218555A1, “CREATINE, ITS DERIVATIVES, COMPOSITIONS AND METHODS OF USE THEREOF” (priority 2021, published 2023).

Legend:
Assay type in all cases: in vivo, human
[1] = test system: cervical and thoracic spine; assay: Example 24: osteoarthritis, spine
Procedure: The same subject above topically applied an adhesive dressing, 5 cm wide and 30 cm long, saturated with a solution of C15 4% in WP 82 to the upper spine.
Over a period of 3 months, subcutaneous injections of 0.6 ml of the above C15 solution were injected subcutaneously into each of 5 intervertebral sites of the cervical and thoracic spine.

[2] = test system: rheumatoid arthritis; rheumatoid nodule; assay: Example 13: rheumatoid arthritis fingers, nodule injection and glove application; settings: left hand only
Procedure: A subject noted changes in their fingers that appeared to be compatible with the diagnosis of early rheumatoid arthritis in autumn of the year. At about one month later there appeared over the terminal interphalangeal joint of the left third finger a raised inflammatory nodule compatible with the diagnosis of a rheumatoid nodule. The nodule was injected with 0.15 ml of a 2% aqueous solution/suspension of creatine monohydrate once weekly for four injections. […] Thereafter, for a period of one month, the subject wore a nitrile glove containing a few drops N-acetyl ethyl creatine 3% dissolved in water: propylene glycol 8:2 for about an hour twice daily on the left hand only.

psoriatic arthritis = assay: Example 25: psoriatic arthritis, topical C15
Excerpt: A subject with a 42 year history of psoriasis, and psoriatic arthritis for the past 8 years, was provided a topical solution of C15 4% in WP 82. […] The subject has used topical formulations of C15 for over 12 weeks, comparing efficacy of 2%, 3.5% and 5% concentrations of C15.

[3] = test system: post trauma pain in the pinned ankle; assay: Example 34: ankle pain after surgical insertion of metal screws; settings: prior applications of C15 formulations
Procedure: A subject with above described post trauma pain at the end of each day experienced painful discomfort in the pinned ankle. […] Complete relief lasted nearly 24 hours. At the end of the next day, the ankle was as painful as the days before. Subject applied 6% C20 in same liquid vehicle.

[4] = test system: muscular pain of upper right back, dystonia; assay: Example 23: pain of dystonia, local subcutaneous injections
Procedure: Five sites of the upper back were injected with 0.3 ml C15 in aqueous solution using insulin syringes with 30G short needles. […] At that time the injections were repeated just before […] departed on a trip to Europe.

[5] = test system: burning itch induced by Mucuna pruriens spicules; assay: Example 38: burning itch induced by Mucuna pruriens; settings: 10% in lotion
Procedure: Pods with beans were obtained from Afro Caribe Botanica, 16 separate specimens. Small round brushes marketed for interdental cleaning were used to collect spicules from the pods. Application to both volar and extensor surfaces of the forearm were made by intense rubbing of the skin with such brush containing spicules. Burning itch developed within 5-7 minutes. […] Participants in this study included the following; • 1. A person. • 2. A person. • 3. A person. • 4. A person. • 5. A person.

painful left knee = assay: Example 10: acute knee pain after physical trauma
Excerpt: A subject with painful left knee gave a history of physical trauma to the left knee while cleaning their house. Degree of pain was sufficiently intense that it required them to wear a knee brace throughout the day, daily. […] The subject was provided a formulation of N-acetyl ethyl creatinate 1.5% dissolved in water: propylene glycol 8:2 for topical application.

[6] = test system: osteoarthritis of numerous joints; assay: Example 19: abdominal subcutaneous injections
Procedure: A physician subject with continually worsening, for 15-16 years, painful osteoarthritis of numerous joints (almost entire spine, wrists, right shoulder, knees and most recently the feet) on one day at 11:30 AM self injected subcutaneously the right abdominal area with 3 ml of a sterile aqueous solution that they had prepared containing N-acetyl ethyl creatinate 1%, arginine 0.25%, pH 7. Using 1 ml insulin syringes with short 8 mm needles 1 ml of the solution was injected into each of 3 sites. Ten minutes later their whole body was 95+% pain free and remained so for 3.5 hours when pain was sensed to be returning. Pain in usual severity returned within another 20-30 minutes.
The next day at 9:00 AM the subject injected 5 sites, each with 1 ml of the same solution. Within 10 minutes their whole body again was 95+% pain free. This almost complete pain free state was maintained for 4 hours when very mild pain in the knees was sensed. Pain in knees and in cervical spine returned to usual degree of severity within an ensuing period of about 20 minutes.

painful right shoulder = assay: Example 24: osteoarthritis, shoulder
Excerpt: The same subject above has had painful right shoulder for several months.

[7] = test system: osteoarthritis of multiple joints; assay: Example 18: whole body application
Procedure: A subject with continually worsening very painful osteoarthritis of multiple joints for 15-16 years prepared the following formulation: […]
N-Acetyl Ethyl Creatinate (C15): Water: Propylene glycol: Mineral Oil: Sodium lauryl sulfate […].
After taking a morning shower, the entire 40 ml formulation was applied by themself and their assistants to their entire body, except the scalp. […] The subject was without any sense of pain for 4.5 hours when mild painful discomfort in the neck was sensed. Over the next 3 hours pain in all joints returned to usual substantial levels.

sprained left ankle = assay: Example 27: ankle sprain pain; settings: 4% in WP 82, 2-3 times daily for 4-5 days
Excerpt: A subject sprained their left ankle while hiking.

CCOC(=O)CN(C)C(N)=NC(C)=O [Compound C15, N-acetyl ethyl creatinate]
time to pain relief ([1]; 4% dressing): within an hour
duration of relief ([1]; 4% dressing, until removed): about 8 hours
extent of pain relief ([1]; adhesive dressing saturated with 4% in WP 82 on upper spine, person): complete relief of pain
extent of pain relief ([1]; subcutaneous 0.6 ml into each of 5 intervertebral sites, five occasions): complete relief of pain
duration of relief ([1]; subcutaneous 0.6 ml, 5 sites): 1-4 weeks
pain on making a fist ([2]; 3% in glove): the left fist was pain free whereas the right fist was substantially painful
size of tight fist ([2]; 3% in glove): the size of the left fist was visibly smaller than that of the right
flexibility of hand and fingers ([2]; 3% in glove, right hand restricted): The left hand and fingers were completely flexible
feel of treated left hand vs untreated right hand ([2]; 3% in water: propylene glycol 8:2 in nitrile glove, about an hour twice daily, one month, after another two months): feel much better than the right hand
duration of relief (psoriatic arthritis; 4% in WP 82): 6 to 24 h
relief of pain (psoriatic arthritis; 4% in WP 82, topical to wrists, hands, fingers and ankles, person): almost instantaneous, complete relief of pain
comparison of 2%, 3.5% and 5% concentrations (psoriatic arthritis; 5% administered as a spray mist): most effective of the three
duration of complete pain relief (psoriatic arthritis; 5% spray mist): 24 h
extent of pain relief [3]: substantially relieve the pain but not completely
duration of relief ([4]; first injections): 2 weeks
extent of pain relief ([4]; five sites of upper back injected with 0.3 ml aqueous solution): Complete relief of pain
time to pain relief ([4]; five sites, 0.3 ml): within the next hour
duration of relief after repeated injections ([4]; repeated injections): lasting beyond two week period
persistence of relief [5]: permanent
time to complete relief of itch [5]: 1 to 2 min
extent of itch relief ([5]; forearm, five participants): complete relief of itch
time to pain relief after application (painful left knee; 1.5% in water: propylene glycol 8:2, topical): about 2 minutes
extent of pain relief (painful left knee; 1.5% in water: propylene glycol 8:2, topical, person): pain in the knee completely vanished
recurrence of pain (painful left knee; at report 10 days later): Pain had not recurred
whole body pain free ([6]; 3 ml of 1% solution (arginine 0.25%, pH 7), 1 ml into each of 3 abdominal sites, subcutaneous): ≥ 95%
duration of pain free state ([6]; 3 ml, 3 sites): 3.5 h
time to pain free state ([6]; 3 ml, 3 sites): Ten
duration of pain free state ([6]; 5 sites, each 1 ml): 4 h
time to pain free state ([6]; 5 sites, each 1 ml): ≤ 10 min
whole body pain free ([6]; next day, 5 sites, each 1 ml of the same solution): ≥ 95%
duration of relief (painful right shoulder; subcutaneous 1 ml): 6 to 7 days
extent of pain relief (painful right shoulder; subcutaneous 1 ml of 1.5% aqueous solution, three occasions, person): complete relief of pain
extent of pain relief ([7]; 40 ml formulation applied to entire body except scalp, person): all pain ceased in all previously painful joints
duration without any sense of pain ([7]; whole body application): 4.5 h
time to pain relief ([7]; whole body application): about 5 minutes
ankle pain at end of treatment (sprained left ankle): no ankle pain was detected
